{"source": "paper PMC5824344", "about": "(ACS Chemical Biology, 2017)", "key": {"[1]": {"conditions": "cited from earlier work"}, "[2]": {"molecular_target": "T1, Rat intestinal cellobiase (Rattus norvegicus, UniProt Q02401)", "T1 sequence (Q02401 868-1928)": "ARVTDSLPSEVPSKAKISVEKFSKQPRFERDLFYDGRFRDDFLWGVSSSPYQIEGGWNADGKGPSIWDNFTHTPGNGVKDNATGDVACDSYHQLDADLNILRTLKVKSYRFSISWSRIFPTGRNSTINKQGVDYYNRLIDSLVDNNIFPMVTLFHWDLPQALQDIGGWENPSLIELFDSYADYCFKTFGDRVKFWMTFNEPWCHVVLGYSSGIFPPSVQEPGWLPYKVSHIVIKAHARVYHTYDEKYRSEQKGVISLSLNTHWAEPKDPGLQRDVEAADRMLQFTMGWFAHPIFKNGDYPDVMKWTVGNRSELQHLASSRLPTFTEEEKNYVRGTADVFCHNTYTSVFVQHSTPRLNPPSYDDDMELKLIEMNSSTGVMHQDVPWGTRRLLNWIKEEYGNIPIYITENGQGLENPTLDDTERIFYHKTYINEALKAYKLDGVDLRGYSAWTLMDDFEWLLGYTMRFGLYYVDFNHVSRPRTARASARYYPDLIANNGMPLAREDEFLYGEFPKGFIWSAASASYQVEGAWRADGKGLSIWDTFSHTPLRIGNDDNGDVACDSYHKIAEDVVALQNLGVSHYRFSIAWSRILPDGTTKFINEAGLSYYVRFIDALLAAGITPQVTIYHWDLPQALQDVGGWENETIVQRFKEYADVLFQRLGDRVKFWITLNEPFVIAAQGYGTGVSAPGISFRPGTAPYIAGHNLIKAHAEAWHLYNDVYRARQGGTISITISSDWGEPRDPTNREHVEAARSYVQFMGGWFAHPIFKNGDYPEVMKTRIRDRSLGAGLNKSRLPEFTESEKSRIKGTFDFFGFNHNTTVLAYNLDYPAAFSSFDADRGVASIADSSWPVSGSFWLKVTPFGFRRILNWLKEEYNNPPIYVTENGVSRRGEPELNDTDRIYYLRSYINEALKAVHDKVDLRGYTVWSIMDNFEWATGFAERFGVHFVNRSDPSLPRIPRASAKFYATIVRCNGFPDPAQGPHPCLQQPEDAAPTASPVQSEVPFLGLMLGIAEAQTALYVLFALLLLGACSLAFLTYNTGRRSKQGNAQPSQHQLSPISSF", "assay": "Inhibition of rat intestinal cellobiase (β-glucosidase; natural substrate, glucose release)", "assay_type": "biochemical", "conditions": "read-out: inhibition of intestinal cellobiase at the maximum tested concentration"}, "[3]": {"test_system": "GluI and GluII in Jurkat (T lymphocyte) cells", "assay": "Free oligosaccharide (FOS) assay in Jurkat cells", "assay_type": "cell-based, human", "conditions": "48 h, 50 µm", "description": "5 Cell and Virus Culture and Assays\n5.1 Culture of Cell Lines\nThe human hepatoma cell line Huh7.5 (Apath, LLC) was cultured in Dulbecco’s modiﬁed Eagle medium (DMEM) with Glutamax (Gibco) supplemented with 100 µg mL−1 strepto-mycin (Sigma), 100 U mL−1 penicillin (Sigma), 100 µm MEM non-essential amino acids (Gibco) and 10% (volume/volume, v/v) heat-inactivated (56 ◦C, 30 min) fetal calf serum (FCS, Seralab). The human monocytic cell line HL60 (ATCC), human T lymphocyte cell line Jurkat (ATCC), and human B lymphocyte cell line Raji (ATCC) were each maintained in RPMI 1640 media with Glutamax (Gibco) supplemented with 100 µg mL−1 streptomycin, 100 U mL−1 penicillin and 10% (v/v) FCS. […]\nCell viability was measured using the CellTiter 96 R© AQueous One Solution Cell Prolifera-tion MTA (3-(4,5-dimethylthiazol-2-yl)-5-(3-carboxymethoxyphenyl)-2-(4-sulfophenyl)-2H - […]\nAfter a further one to two hour incubation, the absorbance at 490 nm was measured on a Molecular Devices SpectraMax M5 microplate reader. […]\nAbsorbances were averaged across replicates, and corrected for background by subtracting the value for media-only wells. Each drug treatment was then evaluated as a percentage of untreated cells. […]\nFOS analysis was carried out as described previously. […] Before purifying the FOS, each sample was analyzed for protein content using the modiﬁed Bradford assay. […]"}}}
{"smiles": "CCCCN1CC(O)C(O)C(O)C1CO", "note": "[Compound 2, N-butyl-D-1-deoxynojirimycin, reference compound]", "values": [{"measurement": "plasma half-life", "setting": "[1]", "value": 5, "unit": "h"}, {"measurement": "tissue in which compound is found in the highest amounts", "setting": "[1]; renally excreted", "value": "highest amounts in the kidneys and bladder"}]}
{"smiles": "Cc1c(C)c2c(c(C)c1OCCCCCN1CC(O)C(O)C(O)C1CO)CCC(C)(CCCC(C)CCCC(C)CCCC(C)C)O2", "note": "(centres unmarked) [Compound 4, 5′-tocopheroxypentyl-DNJ]", "values": [{"measurement": "inhibition at 50 µM", "setting": "[2]", "value": "< 50", "unit": "%"}, {"measurement": "glucosylated free oligosaccharides (FOS) observed after treatment", "setting": "[3]", "value": "not in Jurkat"}, {"measurement": "glucosylated free oligosaccharides (FOS) observed after treatment", "setting": "[3]; listed as ToP-DNJ 4", "value": "no glucosylated FOS were detected"}]}
